Reference: PMC8750417, “Intracellular Amplifiers of Reactive Oxygen Species Affecting Mitochondria as Radiosensitizers” (Cancers, 2021)
Read-outs that look alike come from different tables or passages of the source.

Columns and labels:
FaDu cells = assay: Clonogenic assay (colony formation), FaDu; format: cell-based, human; settings: for Relative clonogenic survival: 48 h exposure, untreated control = 1
Description: (§1) Optimization of concentration of prodrugs and controls / clonogenic assay The clonogenic survival assay is a classical approach to monitor radioresponse and drug- induced radiosensitization in cancer cells. We therefore initially determined whether the supposedly non -toxic drug concentrations defined for combinatorial treatment testing affect single cell colony formation capacity. For this pu rpose, exponentially growing SAS and FaDu cells were dissociated, single cell suspensions were prepared in standard DMEM and seeded in 6 -well plates at […]
(§2) defined low density (150-300 cells in 1 ml per well). After 8 h of incubation to allow cell adherence, 50% of the supernatant was exchanged by media containing the respective prodrugs at 2x concentration and exposed for 48 h. Treatment was then terminated by medium removal, and cells were allowed to grow for a period of ≥5-6 cell divisions estimated from the cell line-specific doubling times of the respective untreated controls (~7 days for SAS and ~10 days for FaDu cells). Control cells were always handled in parallel to the treated cells and thus exposed to the corresponding DMSO concentration(s). After the defined growth intervals, cells were fixed, stained and colonies of >50 cells were manually counted at low magnification to calculate plating efficiencies as the number of counted colonies relative to the number of seeded cells. Drug effect on clonogenic survival was then estimated by normalizing the colony formation of control cells to 1 (Table S9). […]

ARPE-19 cells = assay: Cytotoxicity MTT assay, ARPE-19; format: cell-based; settings: read-out: 50% cell survival (EC50)
Description: Study of synergy of prodrugs with radiotherapy for SAS and FaDu cells
Optimization of concentration of prodrugs and controls / MTT assay
The MTT assay was also applied to assess the impact of various drugs (0.01-100 µM) on the viability of the two human head and neck squamous carcinoma cell (HNSCC) lines SAS and FaDu as well as retinal pigment epithelial ARPE-19 cells and human fibroblasts (HF). Cells were seeded into 96-well plates at concentrations of 4000 and 2000 cells per […]
h before exposure to the drugs. All drug dilutions were prepared from 20 mM stock solutions in DMSO. The final DMSO concentration was set to 0.5% in all sample s including control. After completion of the treatment, the wells were processed according to the routine MTT protocol as described above; the formazan absorbance was then measured on a Biotek Epoch Microplate Spectrophotometer at 590 nm and corrected for the background signal at 620 nm. N≥3 independent experiments were performed for each drug candidate, cell type and treatment interval. Cell survival was recorded as function of the drug concentration, and dose-response curves were fitted with the Boltzmann equation where appropriate. We calculated the half-maximal response (EC50) as well as the EC20 (80% survival) according to the line curve (see Tables S6-S8). EC20-values were used as a basis to select the compound-specific non-toxic drug concentrations for combination with radiotherapy.

SAS and FaDu cells = assay: Semi-quantitative radiosensitization grade over SAS and FaDu; format: cell-based, human; parameters: key: no radiosensitization (“-”); weak effect or effect in one cell line only (“+/−”); clear/strong (“+”) radiosensitization; settings: clonogenic survival with irradiation
Description: defined low density (150-300 cells in 1 ml per well). After 8 h of incubation to allow cell adherence, 50% of the supernatant was exchanged by media containing the respective prodrugs at 2x concentration and exposed for 48 h. Treatment was then terminated by medium removal, and cells were allowed to grow for a period of ≥5-6 cell divisions estimated from the cell line-specific doubling times of the respective untreated controls (~7 days for SAS and ~10 days for FaDu cells). Control cells were always handled in parallel to the treated cells and thus exposed to the corresponding DMSO concentration(s). After the defined growth intervals, cells were fixed, stained and colonies of >50 cells were manually counted at low magnification to calculate plating efficiencies as the number of counted colonies relative to the number of seeded cells. Drug effect on clonogenic survival was then estimated by normalizing the colony formation of control cells to 1 (Table S9).
The colony formation assay was also applied for monitoring radioresponse. Here, increasing numbers of single cells relative to the irradiation dose (0-10 Gy) were seeded into 6-well plates (150-2400 SAS cells/well and 300-4800 FaDu cells/well).
Cells were treated with the drugs upon attachment as described. The total period of drug exposure was 48 h, and single dose irradiation was carried out 24 h after addition of the compounds. X-ray was performed at room temperature with a YxlonY.TU 320 system (Yxlon.international, 200 kV, 0.5 mm Cu filter) and a dose rate of ~1.3 Gy/min. Drug exposure was terminated by medium exchange and cultures were then incubated for the additional time period highlighted earlier.
Plating efficiencies were assessed and normalized for each treatment arm to the respective unirradiated control. Data were reproduced (N=3 each with n=3 wells per experiment and treatment condition). The relative clonogenic cell survival (= survival fraction, SF) was then plotted as function of the irradiation dose, and clonogenic survival curves were fitted employing the linear quadratic model as described

A2780 cells = assay: Mitochondrial ROS (MitoSOX, flow cytometry), A2780; format: cell-based, human
Description: Monitoring mitochondrial ROS (mROS)
A2780 cells were seeded in RPMI 1640 medium containing 5% FBS, 1% L-glutamine and 1% penicillin/streptomycin in a 96-well microtiter plate (total volume 0.1 mL) at a density of 250 cells/µL one day before the experiment. On the day of the experiment, the cells were washed with DPBS buffer and a fresh portion of RPMI 1640 medium containing 5% FBS, 1% L-glutamine and 1% penicillin/streptomycin (100 µL) was added followed by addition of compounds (1 μL of stock solutions in DMSO, final concentration of the prodrugs was 5, 10 μM and 30 μM) or carrier only (DMSO, 1 µL, final concentration 1 %, v/v) and incubation for 1 or 2 h in the dark chamber filled with CO 2 (5%) at 37 °C. After that, the cells were washed twice with DPBS buffer and the medium was replaced with HBSS (Hanks' Balanced Salt solution, 50 μL) containing MitoSOX (Red Mitochondrial Superoxide Indicator, Thermo-Fisher, Catalog number M36008, final concentration 5 µM obtained by adding 0.5 µ L of the 0.5 mM stock solution of MitoSOX in DMSO to the HBSS ) […]
(1 picture or pasted object on this page, not shown here) […]
and the cells were incubated in the dark chamber filled with CO2 (5%) at 37 °C for 20 min.
Next, the cells were detached from the culture dish using trypsin/EDTA (0.025%/0.01%, v/v, 50 µL). The cells were re-suspended in RPMI 1640 medium containing 5% FBS, 1% L-glutamine and 1% penicillin/streptomycin (100 µL). Finally, the fluorescence of live cells (λex = 488 nm, λem = 578 nm) in the suspensions was determined by using flow cytometry

SAS cells = assay: Clonogenic assay (colony formation), SAS; format: cell-based, human; settings: for Relative clonogenic survival: 48 h exposure, untreated control = 1
Description: as §1, §2

With `CC1(C)OB(c2ccc(COC(=O)N(Cc3cccc(CN4CCCCC4)c3)[c-]3cccc3)cc2)OC1(C)C.[Fe+2].c1cc[cH-]c1` [5b] the Relative clonogenic survival (FaDu cells; 0.5 µM) was 0.71 ± 0.07, the Relative clonogenic survival (FaDu cells; 1 µM) was 0.75 ± 0.11 and the Relative clonogenic survival (FaDu cells; 2.5 µM) was 0.36 ± 0.10. For the same compound, the “colony formation reduced to” value (FaDu cells; 10-fold lower dose than 25 µM) was 36 ± 10%, the EC50 (ARPE-19 cells; ARPE-19, 24h) was 40.4 ± 2.5 µM and the EC50 (ARPE-19 cells; ARPE-19, 48h) was 26.6 ± 8.3 µM. The Radiosensitization (SAS and FaDu cells; 1 µM) was “+”, the Radiosensitization (SAS and FaDu cells; 2.5 µM) was “+” and the “mitochondrial ROS (mROS) vs non-treated cells” value (A2780 cells) was “did not affect mROS”. The Relative clonogenic survival (SAS cells; 0.5 µM) was 0.96 ± 0.06, the Relative clonogenic survival (SAS cells; 1 µM) was 0.76 ± 0.06 and the Relative clonogenic survival (SAS cells; 2.5 µM) was 0.36 ± 0.15. The “colony formation reduced to” value (SAS cells; 10-fold lower dose than 25 µM) was 36 ± 15%.

For `CC1(C)OB(c2ccc(COC(=O)N(Cc3cn(Cc4ccc(Cn5cc(Cc6ccccc6)nn5)cc4)nn3)[c-]3cccc3)cc2)OC1(C)C.[Fe+2].c1cc[cH-]c1` [2c], the Relative clonogenic survival (FaDu cells; 10 µM) was 0.86 ± 0.13, the “growth of colonies reduced to” value (FaDu cells; 25 µM) was 20 ± 8% and the Relative clonogenic survival (FaDu cells; 25 µM) was 0.20 ± 0.08. The EC50 (ARPE-19 cells; ARPE-19, 24h) was over 50 µM, the EC50 (ARPE-19 cells; ARPE-19, 48h) was over 50 µM and the Radiosensitization (SAS and FaDu cells; 10 µM) was “+/−”. The Radiosensitization (SAS and FaDu cells; 25 µM) was “+”, the “mitochondrial ROS (mROS) vs non-treated cells” value (A2780 cells) was “significantly increased” and the Relative clonogenic survival (SAS cells; 10 µM) was 0.78 ± 0.13. The “growth of colonies reduced to” value (SAS cells; 25 µM) was 70 ± 10% and the Relative clonogenic survival (SAS cells; 25 µM) was 0.70 ± 0.10.

With `CCOC(=O)CCCCCn1cc(CN(C(=O)OCc2ccc(B3OC(C)(C)C(C)(C)O3)cc2)[c-]2cccc2)nn1.[Fe+2].c1cc[cH-]c1` [compound 1] the “mitochondrial ROS (mROS) vs non-treated cells” value (A2780 cells) was “substantially weaker”.

`[Fe+2].c1cc[cH-]c1.c1cc[cH-]c1` [compound 6, ferrocene] gave a Relative clonogenic survival (FaDu cells; 25 µM) of 0.99 ± 0.08, an EC50 (ARPE-19 cells; ARPE-19, 24h) of over 50 µM and an EC50 (ARPE-19 cells; ARPE-19, 48h) of over 50 µM. The Radiosensitization (SAS and FaDu cells; 25 µM) was “-” and the Relative clonogenic survival (SAS cells; 25 µM) was 0.88 ± 0.10.
